Source: ChEMBL document CHEMBL4261578, “Structure-Function Analysis of Immune Checkpoint Receptors to Guide Emerging Anticancer Immunotherapy” (J Med Chem, 2018)
Numbered stars: 1 amine (or outer) side, 2 acyl side, 3 side chain; on linkers, the order of the positions; unused ones are H or OH. Bridge positions count the residues as written; N and C are the ends. Square brackets hold non-standard residues; d marks the D form. Peptide text beside a SMILES is read from it. ξ: configuration not given here. X1 = CC(C)C[C@H](N[*:1])C(=O)NC(=O)[*:2]; NMeNle = CCCC[C@H](NC)C(=O)O; NMeA = CN[C@@H](C)C(=O)O; ξP = O=C(O)C1CCCN1; ξC = NC(CS)C(=O)O; Sar = CNCC(=O)O

Molecular target: Programmed cell death 1 ligand 1 (Homo sapiens, UniProt Q9NZQ7)
Sequence (Q9NZQ7 whole entry): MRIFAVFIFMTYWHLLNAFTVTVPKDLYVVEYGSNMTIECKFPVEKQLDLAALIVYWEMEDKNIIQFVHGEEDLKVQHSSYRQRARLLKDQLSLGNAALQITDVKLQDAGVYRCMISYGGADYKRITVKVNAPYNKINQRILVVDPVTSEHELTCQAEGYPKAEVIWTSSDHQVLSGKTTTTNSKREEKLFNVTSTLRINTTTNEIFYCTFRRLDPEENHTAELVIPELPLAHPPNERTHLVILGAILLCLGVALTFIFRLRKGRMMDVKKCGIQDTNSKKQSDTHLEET
Experiment: Inhibition of PD-L1 (unknown origin)

CCCC[C@H]1C(=O)N(C)[C@@H](CCCC)C(=O)N[C@@H](CCCNC(=N)N)C(=O)NC(C(=O)NCC(N)=O)CSCC(=O)N[C@@H](Cc2ccccc2)C(=O)N(C)[C@@H](C)C(=O)N[C@@H](CC(N)=O)C(=O)N2CCCC2C(=O)N[C@@H](CC(C)C)C(=O)NC(=O)N(C)CC(=O)NCC(=O)N[C@@H](Cc2c[nH]c3ccccc23)C(=O)N[C@@H](Cc2c[nH]c3ccccc23)C(=O)N1C (stereo partly specified) ({CH2CO}-F[NMeA]N[ξP][X1][Sar]GWW[NMeNle][NMeNle]R[ξC]G-NH2; thioether N-13) gave an IC50 of 5.2 nM.
